Data: patent publication EP0352652B1, “Use of imexone as an immunosuppressive agent” (BOEHRINGER MANNHEIM GMBH, priority 1988, dated 1990)

Columns and labels:
Milzzellen = test: Concanavalin A (ConA)-induced proliferation of murine splenocytes (LTT), [3H]-thymidine incorporation; assay type: cell-based, CB6F₁-Mäusen; conditions: for LTT (Splenozyten, ConA) ^3H-TdR cpm (n=6) x̄: 0,5 µg/ml ConA
Experimental: Milzzellen (4 x 10⁵) von CB6F₁-Mäusen werden mit 0,5 µg/ml ConA in Mikrotiterplatten (Nunc GmbH, Wiesbaden, FRG) und verschiedenen Konzentrationen von Imexon in 6-fach Ansätzen für insgesamt 48 h inkubiert. 5 h vor Ablauf der Inkubationszeit werden die Kulturen mit [³H]-Thymidin gepulst und anschließend auf Glasfiberfilterplattchen mittels eines Multisample Harvester (Skatron A.S., Lier, Norwegen) geerntet. Die Filterplättchen werden getrocknet, und die Radioaktivität in einem Packard Szintillationsspektrometer bestimmt.

humaner Lymphozyten = test: Phytohaemagglutinin (PHA)-induced proliferation of human lymphocytes (LTT), [3H]-thymidine incorporation; assay type: cell-based
Experimental: 1 ml humanes Vollblut wird mit 500 µg PHA-Lösung (500 µg/ml) und 48 ml DMEM-Mediun verdünnt. Jeweils 200 µl dieses Ansatzes werden mit 20 µl der zu testenden Imexonkonzentration in 6-fach-Ansätzen gemischt und 4 Tage inkubiert. Nach Pulsen mit [³H]-Thymidin wird weitere 24 h inkubiert, geerntet und ausgewertet wie bei Beispiel 2 beschrieben.

Walker-Sarkoma 256 = conditions: rats, after application of Imexon; cited from earlier work
[1] = tested on: Leukozyten; Antikörper bildende Milzzellen; conditions: after application of Imexon; cited from earlier work
Mäusestamm MRL 1pr/1pr = test: Autoimmune disease model in MRL mice (lymphadenomas, antinuclear autoantibodies), prophylactic and therapeutic treatment; assay type: in vivo, Maus
Source text: B. Synthese von antinukleâren Autoantikörpern. Zur Untersuchung des prophylaktischen Effektes von Imexon auf die Entwicklung dieser Symptome wurden 11 Wochen alte MRL Mäuse einmal täglich intraperitoneal mit den angegebenen Dosierungen Imexon und Cyclophosphamid behandelt. Dokumentiert wurden die Zahl der Lymphadenome und die Konzentration antinukleärer Antikörper. Bei der Untersuchung zur therapeutischen Potenz von Imexon wurden MRL Mäuse, […] jedes Tier mindestens ein Lymphadenom […] an Imexon und Cyclophosphamid behandelt. Die Meßparameter waren wiederum Zahl der Lymphadenome sowie Autoantikö[…].

humane B-Lymphozyten = test: BCGF-dependent proliferation of human B lymphocytes, [3H]-thymidine incorporation; assay type: cell-based
Experimental: Die Anreicherung von peripheren humanen B-Zellen und der BCGF-Proliferationsassay wurden wie folgt durchgeführt (vgl. a. Eur. J. Immun. 16, 350 (1986)): Angereicherte humane B-Lymphozyten werden zweimal gewaschen mit komplettiertem RPMI 1640 Medium (Streptomycin/Penicillin, L-Glutamin, 2-Mercaptoethanol, FCS) und auf 3 x 10⁵ Zellen/ml eingestellt. […] dieser Suspension werden jeweils pro Well in Mikrotiterplatten pipettiert. Als Pseudoantigen werden […] einer Lösung von HFCµS-IgG (300 µg/ml) zugegeben und als Wachstumsfaktor 20 µl BCGF (Cellular Products Incorporated) hinzugefügt. Dazu werden 20 µl der zu testenden Verbindung in 10facher Konzentration pipettiert. Die Kulturen werden insgesamt 140 h bei 37°, 5 % CO₂ und 95 % relativen Luftfeuchtigkeit inkubiert. 16 h vor Ablauf der Inkubationszeit wird jede Kultur mit 1 µ Ci einer [³H]-Thymidin-Lösung gepulst. Am Ende des Versuches werden die Zellen mit einem Harvester geerntet und die eingebaute Radioaktivität in einem Flüssigszintillationszähler bestimmt.

[2] = tested on: Methylcholanthren-induzierte Fibrosarkomzellinie (MethA); test: Tumour growth inhibition assay (TGI), spontaneous proliferation of MethA cells, [3H]-thymidine incorporation; assay type: cell-based, CB6F₁-Mäusen
Experimental: Die Methylcholanthren-induzierte Fibrosarkomzellinie (MethA) wurde aus der eigenen Tumorzellbank erhalten und intraperitoneal in CB6F₁-Mäusen passagiert.
1 x 10⁴ MethA-Zellen werden mit der zu testenden Imexonkonzentration in DMEM-Medium über 48 h inkubiert. 3 h vor Ablauf der Inkubationszeit wird mit [³H]-Thymidin gepulst, geerntet und ausgewertet wie bei Beispiel 2 beschrieben.

[3] = relative to suppression of BCGF-induced B-cell proliferation, not or only at these concentrations
[4] = prophylactic, 11-week-old MRL mice, once daily intraperitoneal
[5] = therapeutic, lymphoma-bearing MRL mice (ca. 14 weeks old), once daily
[6] = Homo sapiens, Lymphocyte, 140 h, read-out: BCGF (humane B-Lym-phozyten) %Hemmung

N=C1NC(=O)N2CC12 (stereo not drawn) [Imexon, 4-Imino-1,3-diazabicyclo-(3.1.0)-hexan-2-on]
LTT (Splenozyten, ConA) ^3H-TdR cpm (n=6) x̄ (Milzzellen; Imexon 0.1 µg/ml, 48 h): 109717 cpm | LTT (Splenozyten, ConA) ^3H-TdR cpm (n=6) x̄ (Milzzellen; Imexon 0.3 µg/ml, 48 h): 134032 cpm | LTT (Splenozyten, ConA) ^3H-TdR cpm (n=6) x̄ (Milzzellen; Imexon 1 µg/ml, 48 h): 119120 cpm | LTT (Splenozyten, ConA) ^3H-TdR cpm (n=6) x̄ (Milzzellen; Imexon 3 µg/ml, 48 h): 118487 cpm | LTT (Splenozyten, ConA) ^3H-TdR cpm (n=6) x̄ (Milzzellen; Imexon 10 µg/ml, 48 h): 24895 cpm | LTT (Splenozyten, ConA) ^3H-TdR cpm (n=6) x̄ (Milzzellen; Imexon 30 µg/ml, 48 h): 2509 cpm | LTT (Splenozyten, ConA) ^3H-TdR cpm (n=6) x̄ (Milzzellen; Imexon 100 µg/ml, 48 h): 903 cpm | inhibition at 0.1 µg/mL (Milzzellen; Splenocyte, 48 h, Imexon 0.1 µg/ml, read-out: LTT (Splenozyten, ConA) %Hemmung): 0% | inhibition at 0.3 µg/mL (Milzzellen; Splenocyte, 48 h, Imexon 0.3 µg/ml, read-out: LTT (Splenozyten, ConA) %Hemmung): -22% | inhibition at 1 µg/mL (Milzzellen; Splenocyte, 48 h, Imexon 1 µg/ml, read-out: LTT (Splenozyten, ConA) %Hemmung): -8% | inhibition at 3 µg/mL (Milzzellen; Splenocyte, 48 h, Imexon 3 µg/ml, read-out: LTT (Splenozyten, ConA) %Hemmung): -8% | inhibition at 10 µg/mL (Milzzellen; Splenocyte, 48 h, Imexon 10 µg/ml, ** p < 0.001, read-out: LTT (Splenozyten, ConA) %Hemmung): 77% | inhibition at 30 µg/mL (Milzzellen; Splenocyte, 48 h, Imexon 30 µg/ml, ** p < 0.001, read-out: LTT (Splenozyten, ConA) %Hemmung): 98% | inhibition at 100 µg/mL (Milzzellen; Splenocyte, 48 h, Imexon 100 µg/ml, ** p < 0.001, read-out: LTT (Splenozyten, ConA) %Hemmung): 99% | minimal effective concentration (Milzzellen; Splenocyte, 48 h, induced by ConA, read-out: Konzentrationen, bei denen die Lymphozytenproliferation signifikant gehemmt wird): > 10 µg/mL | höhere Konzentrationen, bei denen die ConA-induzierte Lymphozytenproliferation beeinflußt wird (Milzzellen; [3]): 10-30 fach | inhibition at 0.1 µg/mL (humaner Lymphozyten; Homo sapiens, Lymphocyte, Imexon 0.1 µg/ml, read-out: LTT (Splenozyten, PHA) %Hemmung): 5% | inhibition at 0.3 µg/mL (humaner Lymphozyten; Homo sapiens, Lymphocyte, Imexon 0.3 µg/ml, read-out: LTT (Splenozyten, PHA) %Hemmung): -3% | inhibition at 1 µg/mL (humaner Lymphozyten; Homo sapiens, Lymphocyte, Imexon 1 µg/ml, read-out: LTT (Splenozyten, PHA) %Hemmung): -11% | inhibition at 3 µg/mL (humaner Lymphozyten; Homo sapiens, Lymphocyte, Imexon 3 µg/ml, read-out: LTT (Splenozyten, PHA) %Hemmung): 19% | inhibition at 10 µg/mL (humaner Lymphozyten; Homo sapiens, Lymphocyte, Imexon 10 µg/ml, ** p < 0.001, read-out: LTT (Splenozyten, PHA) %Hemmung): 89% | inhibition at 30 µg/mL (humaner Lymphozyten; Homo sapiens, Lymphocyte, Imexon 30 µg/ml, ** p < 0.001, read-out: LTT (Splenozyten, PHA) %Hemmung): 99% | inhibition at 100 µg/mL (humaner Lymphozyten; Homo sapiens, Lymphocyte, Imexon 100 µg/ml, ** p < 0.001, read-out: LTT (Splenozyten, PHA) %Hemmung): 99% | minimal effective concentration (humaner Lymphozyten; Homo sapiens, Lymphocyte, induced by PHA, read-out: Konzentrationen, bei denen die Lymphozytenproliferation signifikant gehemmt wird): > 10 µg/mL | LTT (Splenozyten, PHA) ^3H-TdR cpm (n=6) x̄ (humaner Lymphozyten; Imexon 0.1 µg/ml): 41849 cpm | LTT (Splenozyten, PHA) ^3H-TdR cpm (n=6) x̄ (humaner Lymphozyten; Imexon 0.3 µg/ml): 45542 cpm | LTT (Splenozyten, PHA) ^3H-TdR cpm (n=6) x̄ (humaner Lymphozyten; Imexon 1 µg/ml): 49348 cpm | LTT (Splenozyten, PHA) ^3H-TdR cpm (n=6) x̄ (humaner Lymphozyten; Imexon 3 µg/ml): 35850 cpm | LTT (Splenozyten, PHA) ^3H-TdR cpm (n=6) x̄ (humaner Lymphozyten; Imexon 10 µg/ml): 4724 cpm | LTT (Splenozyten, PHA) ^3H-TdR cpm (n=6) x̄ (humaner Lymphozyten; Imexon 30 µg/ml): 573 cpm | LTT (Splenozyten, PHA) ^3H-TdR cpm (n=6) x̄ (humaner Lymphozyten; Imexon 100 µg/ml): 585 cpm | höhere Konzentrationen, bei denen die PHA-induzierte Lymphozytenproliferation beeinflußt wird (humaner Lymphozyten; [3]): 10-30 fach | Tumorwachstum von Walker-Sarkoma 256 (Walker-Sarkoma 256): Hemmung des Tumorwachstums | Leukozyten [1]: Anstieg der Leukozyten | Zahl der Antikörper bildenden Milzzellen [1]: Anstieg der Zahl der Antikörper bildenden Milzzellen | Verträglichkeit (Mäusestamm MRL 1pr/1pr; MRL mice, once daily intraperitoneal): sehr guter Verträglichkeit | Konzentration DNA spezifischer Antikörper (Mäusestamm MRL 1pr/1pr; [4]): erniedrigt | Zahl spontan entstehender Lymphadenome (Mäusestamm MRL 1pr/1pr; [4]): erniedrigt | Titer der Autoantikörper (Mäusestamm MRL 1pr/1pr; [5]): nimmt dosisabhängig ab | Zahl der Lymphadenome (Mäusestamm MRL 1pr/1pr; [5]): nimmt dosisabhängig ab | Proliferation von B-Lymphozyten (humane B-Lymphozyten): dosisabhängig hemmt | inhibition at 0.1 µg/mL (humane B-Lymphozyten; [6]): 13% | inhibition at 0.3 µg/mL (humane B-Lymphozyten; [6]): 24% | inhibition at 1 µg/mL (humane B-Lymphozyten; [6]): 62% | inhibition at 3 µg/mL (humane B-Lymphozyten; [6]): 85% | inhibition at 10 µg/mL (humane B-Lymphozyten; [6]): 90% | inhibition at 30 µg/mL (humane B-Lymphozyten; [6]): 89% | inhibition at 100 µg/mL (humane B-Lymphozyten; [6]): 90% | minimal effective concentration (humane B-Lymphozyten; Homo sapiens, Lymphocyte, 140 h, read-out: Konzentration, bei der die BCGF-induzierte B-Zellproliferation signifikant und spezifisch supprimiert wird): 1 µg/mL | BCGF (humane B-Lym-phozyten) ^3H-TdR cpm (n=6) x̄ (humane B-Lymphozyten; Imexon 0.1 µg/ml, 140 h): 4847 cpm | BCGF (humane B-Lym-phozyten) ^3H-TdR cpm (n=6) x̄ (humane B-Lymphozyten; Imexon 0.3 µg/ml, 140 h): 4201 cpm | BCGF (humane B-Lym-phozyten) ^3H-TdR cpm (n=6) x̄ (humane B-Lymphozyten; Imexon 1 µg/ml, 140 h): 2096 cpm | BCGF (humane B-Lym-phozyten) ^3H-TdR cpm (n=6) x̄ (humane B-Lymphozyten; Imexon 3 µg/ml, 140 h): 831 cpm | BCGF (humane B-Lym-phozyten) ^3H-TdR cpm (n=6) x̄ (humane B-Lymphozyten; Imexon 10 µg/ml, 140 h): 574 cpm | BCGF (humane B-Lym-phozyten) ^3H-TdR cpm (n=6) x̄ (humane B-Lymphozyten; Imexon 30 µg/ml, 140 h): 617 cpm | BCGF (humane B-Lym-phozyten) ^3H-TdR cpm (n=6) x̄ (humane B-Lymphozyten; Imexon 100 µg/ml, 140 h): 562 cpm | TGI (MethA) ^3H-TdR cpm (n=6) x̄ ([2]; Imexon 0.1 µg/ml, 48 h): 31722 cpm | TGI (MethA) ^3H-TdR cpm (n=6) x̄ ([2]; Imexon 0.3 µg/ml, 48 h): 37593 cpm | TGI (MethA) ^3H-TdR cpm (n=6) x̄ ([2]; Imexon 1 µg/ml, 48 h): 35475 cpm | TGI (MethA) ^3H-TdR cpm (n=6) x̄ ([2]; Imexon 3 µg/ml, 48 h): 35473 cpm | TGI (MethA) ^3H-TdR cpm (n=6) x̄ ([2]; Imexon 10 µg/ml, 48 h): 21913 cpm | TGI (MethA) ^3H-TdR cpm (n=6) x̄ ([2]; Imexon 30 µg/ml, 48 h): 911 cpm | TGI (MethA) ^3H-TdR cpm (n=6) x̄ ([2]; Imexon 100 µg/ml, 48 h): 534 cpm | inhibition at 0.1 µg/mL ([2]; Meth-A, 48 h, Imexon 0.1 µg/ml, read-out: TGI (MethA) %Hemmung): 7% | inhibition at 0.3 µg/mL ([2]; Meth-A, 48 h, Imexon 0.3 µg/ml, read-out: TGI (MethA) %Hemmung): -11% | inhibition at 1 µg/mL ([2]; Meth-A, 48 h, Imexon 1 µg/ml, read-out: TGI (MethA) %Hemmung): -4% | inhibition at 3 µg/mL ([2]; Meth-A, 48 h, Imexon 3 µg/ml, read-out: TGI (MethA) %Hemmung): -4% | inhibition at 10 µg/mL ([2]; Meth-A, 48 h, Imexon 10 µg/ml, ** p < 0.001, read-out: TGI (MethA) %Hemmung): 35% | inhibition at 30 µg/mL ([2]; Meth-A, 48 h, Imexon 30 µg/ml, ** p < 0.001, read-out: TGI (MethA) %Hemmung): 97% | inhibition at 100 µg/mL ([2]; Meth-A, 48 h, Imexon 100 µg/ml, ** p < 0.001, read-out: TGI (MethA) %Hemmung): 98% | minimal effective concentration ([2]; Meth-A, 48 h, spontaneous proliferation, read-out: Konzentration, ab der die Spontanproliferation von MethA-Sarkomzellen signifikant unterdrückt ist): > 10 µg/mL | höhere Konzentrationen, bei denen die spontane Proliferation von MethA beeinflußt wird [2, 3]: 10-30 fach
